biological target: PD-L1 His protein / PD-1 Fc protein (Homo sapiens, UniProt Q9NZQ7); assay: HTRF Assay (PD-1/PD-L1 interaction); type: binding; conditions: PD-L1 His 6 nM, PD-1 Fc 6 nM
Method in brief: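 HTRF: PD-L1 His (6 nM final), compound (3-fold dilutions, 20 μM to 0.001 μM final) and PD-1 Fc (6 nM final) preincubated 15 min at room temperature. Anti-human IgG-XL665 and anti-6HIS Tb cryptate (mixed at 6.7 nM and 0.35 nM) then added for 1 h at room temperature before reading.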

Chain of PD-L1 His protein / PD-1 Fc protein (Q9NZQ7 19-238 limits assumed): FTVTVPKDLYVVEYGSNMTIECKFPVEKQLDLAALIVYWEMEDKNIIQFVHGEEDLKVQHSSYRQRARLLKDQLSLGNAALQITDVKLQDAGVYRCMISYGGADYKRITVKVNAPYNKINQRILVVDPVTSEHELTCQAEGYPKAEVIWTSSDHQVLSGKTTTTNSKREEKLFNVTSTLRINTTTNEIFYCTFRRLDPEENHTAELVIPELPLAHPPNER

Row | SMILES | IC50
1 | COc1nc(-c2cccc(-c3cccc(-c4cc(F)c5c(c4)CCN(CCNC[C@@H]4CCC(=O)N4)C5=O)c3Cl)c2Cl)ccc1CNC[C@@H]1CCC(=O)N1 [Example 400, 6-(2,2′-Dichloro-3′-(6-methoxy-5-(((((S)-5-oxopyrrolidin-2-yl)methyl)amino)methyl)pyridin-2-yl)-[1,1′-biphenyl]-3-yl)-8-fluoro-2-(2-((((S)-5-oxopyrrolidin-2-yl)methyl)amino)ethyl)-3,4-dihydroisoquinolin-1(2H)-one] | 550 nM
2 | COc1nc(-c2cccc(-c3cccc(-c4ncc5c(CNC[C@@H]6CCC(=O)N6)cn(C)c5n4)c3Cl)c2Cl)ccc1CNC[C@@H]1CCC(=O)N1 [Example 401, (S)-5-((((2-(2,2′-Dichloro-3′-(6-methoxy-5-(((((S)-5-oxopyrrolidin-2-yl)methyl)amino)methyl)pyridin-2-yl)-[1,1′-biphenyl]-3-yl)-7-methyl-7H-pyrrolo[2,3-d]pyrimidin-5-yl)methyl)amino)methyl)pyrrolidin-2-one] | 0.1 nM
3 | COc1nc(-c2cccc(-c3cccc(-c4cc5c(cn4)c(CNC[C@@H]4CCC(=O)N4)cn5C)c3Cl)c2Cl)ccc1CNC[C@@H]1CCC(=O)N1 [Example 402, (S)-5-((((6-(2,2′-Dichloro-3′-(1-methyl-3-(((((S)-5-oxopyrrolidin-2-yl)methyl)amino)methyl)-1H-pyrrolo[3,2-c]pyridin-6-yl)-[1,1′-biphenyl]-3-yl)-2-methoxypyridin-3-yl)methyl)amino)methyl)pyrrolidin-2-one] | 50 nM
4 | COc1nc(-c2cccc(-c3cccc(-c4cnc5c(c4)CNCC(=O)N5)c3Cl)c2Cl)ccc1CNC[C@@H]1CCC(=O)N1 [Example 403, (S)-7-(2,2′-Dichloro-3′-(6-methoxy-5-((((5-oxopyrrolidin-2-yl)methyl)amino)methyl)pyridin-2-yl)-[1,1′-biphenyl]-3-yl)-1,3,4,5-tetrahydro-2H-pyrido[2,3-e][1,4]diazepin-2-one] | 0.1 nM
5 | COc1nc(-c2cccc(-c3cccc(-c4ccn5c(=O)c(CNC[C@@H]6CCC(=O)N6)c(C)nc5c4)c3Cl)c2Cl)cc(F)c1CNC[C@@H]1CCC(=O)N1 [Example 404, 8-(2,2′-Dichloro-3′-(4-fluoro-6-methoxy-5-(((((S)-5-oxopyrrolidin-2-yl)methyl)amino)methyl)pyridin-2-yl)-[1,1′-biphenyl]-3-yl)-2-methyl-3-(((((S)-5-oxopyrrolidin-2-yl)methyl)amino)methyl)-4H-pyrido[1,2-a]pyrimidin-4-one] | 0.1 nM
6 | COc1nc(-c2cccc(-c3cccc(-c4cc5c(=O)n(C)c(CNCC(C)(C)O)nn5c4)c3Cl)c2Cl)ccc1CNC[C@@H]1CCC(=O)N1 [Example 405, (S)-6-(2,2′-Dichloro-3′-(6-methoxy-5-((((5-oxopyrrolidin-2-yl)methyl)amino)methyl)pyridin-2-yl)-[1,1′-biphenyl]-3-yl)-2-(((2-hydroxy-2-methylpropyl)amino)methyl)-3-methylpyrrolo [2,1-f][1,2,4]triazin-4(3H)-one] | 84 nM
7 | COc1nc(-c2cccc(-c3cccc(-c4cc5c(=O)n(C)c(CNCCC(F)(F)F)nn5c4)c3Cl)c2Cl)ccc1CNC[C@@H]1CCC(=O)N1 [Example 406, (S)-6-(2,2′-Dichloro-3′-(6-methoxy-5-((((5-oxopyrrolidin-2-yl)methyl)amino)methyl)pyridin-2-yl)-[1,1′-biphenyl]-3-yl)-3-methyl-2-(((3,3,3-trifluoropropyl)amino)methyl)pyrrolo[2,1-f][1,2,4]triazin-4(3H)-one] | 33 nM
8 | COc1nc(-c2cccc(-c3cccc(-c4ccn5c(=O)c(CNC[C@H]6C[C@H]6CO)cnc5c4)c3Cl)c2Cl)ccc1CNC[C@@H]1CCC(=O)N1 [Example 408, 8-(2,2′-Dichloro-3′-(6-methoxy-5-(((((S)-5-oxopyrrolidin-2-yl)methyl)amino)methyl)pyridin-2-yl)-[1,1′-biphenyl]-3-yl)-3-(((((1S,2R)-2-(hydroxymethyl)cyclopropyl)methyl)amino)methyl)-4H-pyrido[1,2-a]pyrimidin-4-one] | 1.1 nM
9 | COc1nc(-c2cccc(-c3cccc(-c4ccn5c(=O)c(CNC[C@@H]6C[C@@H]6CO)cnc5c4)c3Cl)c2Cl)ccc1CNC[C@@H]1CCC(=O)N1 [Example 409, 8-(2,2′-Dichloro-3′-(6-methoxy-5-(((((S)-5-oxopyrrolidin-2-yl)methyl)amino)methyl)pyridin-2-yl)-[1,1′-biphenyl]-3-yl)-3-(((((1R,2S)-2-(hydroxymethyl)cyclopropyl)methyl)amino)methyl)-4H-pyrido[1,2-a]pyrimidin-4-one] | 0.2 nM
10 | CN1CCNCc2ccc(-c3cccc(-c4cccc(-c5ccn6c(=O)c(CNC[C@@H]7CCC(=O)N7)cnc6c5)c4Cl)c3Cl)cc21 [Example 410, (S)-8-(2,2′-Dichloro-3′-(1-methyl-2,3,4,5-tetrahydro-1H-benzo[e][1,4]diazepin-8-yl)-[1,1′-biphenyl]-3-yl)-3-((((5-oxopyrrolidin-2-yl)methyl)amino)methyl)-4H-pyrido[1,2-a]pyrimidin-4-one] | 120 nM
11 | COc1nc(-c2cccc(-c3cccc(-c4ccc5c(CNC[C@H](C)O)cn(C)c5n4)c3Cl)c2Cl)ccc1CNC[C@@H]1CCC(=O)N1 [Example 411, (5S)-5-[[[6-[2-Chloro-3-[2-chloro-3-[3-[[[(2S)-2-hydroxypropyl]amino]methyl]-1-methyl-pyrrolo[2,3-b]pyridin-6-yl]phenyl]phenyl]-2-methoxy-3-pyridyl]methylamino]methyl]pyrrolidin-2-one] | 1.6 nM
12 | COc1nc(-c2cccc(-c3cccc(-c4ccc5c(CN(C)CCO)cn(C)c5n4)c3Cl)c2Cl)ccc1CNC[C@@H]1CCC(=O)N1 [Example 412, (5S)-5-[[[6-[2-Chloro-3-[2-chloro-3-[3-[[2-hydroxyethyl(methyl)amino]methyl]-1-methyl-pyrrolo[2,3-b]pyridin-6-yl]phenyl]phenyl]-2-methoxy-3-pyridyl]methylamino]methyl]pyrrolidin-2-one] | 5.2 nM
13 | COc1nc(-c2cccc(-c3cccc(-c4ccc5c(CNC[C@@H]6CCO6)cn(C)c5n4)c3Cl)c2Cl)ccc1CNC[C@@H]1CCC(=O)N1 [Example 413, (5S)-5-[[[6-[2-Chloro-3-[2-chloro-3-[1-methyl-3-[[[(2S)-oxetan-2-yl]methylamino]methyl]pyrrolo[2,3-b]pyridin-6-yl]phenyl]phenyl]-2-methoxy-3-pyridyl]methylamino]methyl]pyrrolidin-2-one] | 190 nM
14 | COc1nc(-c2cccc(-c3cccc(-c4ccc5c(CNCCN6CCCC6=O)cn(C)c5n4)c3Cl)c2Cl)ccc1CNC[C@@H]1CCC(=O)N1 [Example 414, 1-[2-[[6-[2-Chloro-3-[2-chloro-3-[6-methoxy-5-[[[(2S)-5-oxopyrrolidin-2-yl]methylamino]methyl]-2-pyridyl]phenyl]phenyl]-1-methyl-pyrrolo[2,3-b]pyridin-3-yl]methylamino]ethyl]pyrrolidin-2-one] | 170 nM
15 | COc1nc(-c2cccc(-c3cccc(-c4ccc5c(CNC6CCN(C(C)=O)CC6)cn(C)c5n4)c3Cl)c2Cl)ccc1CNC[C@@H]1CCC(=O)N1 [Example 415, (5S)-5-[[[6-[3-[3-[3-[[(1-Acetyl-4-piperidyl)amino]methyl]-1-methyl-pyrrolo[2,3-b]pyridin-6-yl]-2-chloro-phenyl]-2-chloro-phenyl]-2-methoxy-3-pyridyl]methylamino]methyl]pyrrolidin-2-one] | 220 nM
16 | Cn1cc(CNC[C@@H]2CCC(=O)N2)c2ccc(-c3cccc(-c4cccc(-c5ccn6c(=O)c(CNC[C@@H]7CCC(=O)N7)cnc6c5)c4Cl)c3Cl)nc21 [Example 416, 8-[2-Chloro-3-[2-chloro-3-[1-methyl-3-[[[(2S)-5-oxopyrrolidin-2-yl]methylamino]methyl]pyrrolo[2,3-b]pyridin-6-yl]phenyl]phenyl]-3-[[[(2S)-5-oxopyrrolidin-2-yl]methylamino]methyl]pyrido[1,2-a]pyrimidin-4-one] | 71 nM
17 | Cn1cc(CNC[C@@H]2CCC(=O)N2)c2ccc(-c3cccc(-c4cccc(-c5ccc6c(CNC[C@@H]7CCC(=O)N7)cn(C)c6n5)c4Cl)c3Cl)nc21 [Example 417, (5S)-5-[[[6-[2-Chloro-3-[2-chloro-3-[1-methyl-3-[[[(2S)-5-oxopyrrolidin-2-yl]methylamino]methyl]pyrrolo[2,3-b]pyridin-6-yl]phenyl]phenyl]-1-methyl-pyrrolo[2,3-b]pyridin-3-yl]methylamino]methyl]pyrrolidin-2-one] | 32 nM
18 | COc1cc(-c2cccc(-c3cccc(-c4ccc(CNC[C@@H]5CCC(=O)N5)c(OC)n4)c3Cl)c2Cl)cc2c1CN(C[C@H](C)O)CC2 [Example 418, (S)-5-((((6-(2,2′-Dichloro-3′-(2-((S)-2-hydroxypropyl)-8-methoxy-1,2,3,4 tetrahydroisoquinolin-6-yl)-[1,1′-biphenyl]-3-yl)-2-methoxypyridin-3-yl)methyl)amino)methyl)pyrrolidin-2-one] | 23 nM
19 | COc1cc(-c2cccc(-c3cccc(-c4ccc(CNC[C@@H]5CCC(=O)N5)c(OC)n4)c3Cl)c2Cl)cc2c1CN(C[C@@H](C)O)CC2 [Example 419, (S)-5-((((6-(2,2′-Dichloro-3′-(2-((R)-2-hydroxypropyl)-8-methoxy-1,2,3,4-tetrahydroisoquinolin-6-yl)-[1,1′-biphenyl]-3-yl)-2-methoxypyridin-3-yl)methyl)amino)methyl)pyrrolidin-2-one] | 26 nM
20 | COc1nc(-c2cccc(-c3cccc(-c4cnc5c(CNC[C@@H]6CCC(=O)N6)c(C)nn5c4)c3Cl)c2Cl)ccc1CNC[C@@H]1CCC(=O)N1 [Example 420, (S)-5-((((6-(2,2′-Dichloro-3′-(2-methyl-3-(((((S)-5-oxopyrrolidin-2-yl)methyl)amino)methyl)pyrazolo[1,5-a]pyrimidin-6-yl)-[1,1′-biphenyl]-3-yl)-2-methoxypyridin-3-yl)methyl)amino)methyl)pyrrolidin-2-one] | 0.6 nM
